Results reported in patent US20060183714A1, “3-Alpha-glycosyl alpha, alpha-trehalose compound, process for producing the same, and use” (priority 2003, published 2006).

Experiments:
[1] = reducibility of the saccharide product; format: physicochemical; details: product as obtained
[2] = aminocarbonyl (Maillard) reaction of the saccharide product; format: physicochemical; details: product as obtained

reducibility [1] | aminocarbonyl reaction [2] | Structure (SMILES)
substantially no reducibility | hardly causes aminocarbonyl reaction | OC[C@H]1O[C@H](O[C@H]2O[C@H](CO)[C@@H](O)[C@H](O[C@H]3O[C@H](CO)[C@@H](O)[C@H](O)[C@H]3O)[C@H]2O)[C@H](O)[C@@H](O)[C@@H]1O [Example 5, 3-α-glucosyl α,α-trehalose]
substantially no reducibility | hardly causes amino carbonyl reaction | OC[C@H]1O[C@H](OC[C@H]2O[C@H](O[C@@H]3[C@@H](O)[C@@H](O[C@H]4O[C@H](CO)[C@@H](O)[C@H](O)[C@H]4O)O[C@H](CO)[C@H]3O)[C@H](O)[C@@H](O)[C@@H]2O)[C@H](O)[C@@H](O)[C@@H]1O [Example 3, 3-α-isomaltosyl α,α-trehalose]
